Source: patent publication US20250230193A1, “CYCLIC COMPOUND HAVING SELECTIVE KRAS INHIBITORY EFFECT ON HRAS AND NRAS” (CHUGAI SEIYAKU KABUSHIKI KAISHA, priority 2022, published 2025)
Read-outs that look alike come from different tables or passages of the source. *1 amine or outer side, *2 acyl side, *3 side chain or, on linkers, in order; H or OH if unused. Where a SMILES comes first, the peptide text is derived from it. Bridges are numbered along the chain shown (N, C = ends). [ ]: non-standard residue; d: D form. hPhe(3,5-F2-4-CF3) = N[C@@H](CCc1cc(F)c(C(F)(F)F)c(F)c1)C(=O)O; hPhe(3-Cl-4-CF3) = N[C@@H](CCc1ccc(C(F)(F)F)c(Cl)c1)C(=O)O; X8 = CCCN([C@@H](Cc1ccc(OCC=[*:3])cc1)C(=O)[*:2])[*:1]; X4 = CCCN([C@@H](COCCC(C)C)C(=O)[*:2])[*:1]; X7 = CN([C@@H](CCC=[*:3])C(=O)[*:2])[*:1]; NMeGly(cPent) = CN[C@H](C(=O)O)C1CCCC1; Hyp = O=C(O)[C@@H]1C[C@@H](O)CN1; NMeD = CN[C@@H](CC(=O)O)C(=O)O; NMeL = CN[C@@H](CC(C)C)C(=O)O; NMeA = CN[C@@H](C)C(=O)O; Ac5c = NC1(C(=O)O)CCCC1; Aze = O=C(O)[C@@H]1CCN1; Ac4c = NC1(C(=O)O)CCC1; Sar = CNCC(=O)O

Tests used:
[1] = biological target: GDP-bound KRAS wild-type protein (Homo sapiens, UniProt P01116); assay: Binding to KRAS by surface plasmon resonance (SPR), Single Cycle Kinetics
[2] = biological target: GDP-bound HRAS wild-type protein (Homo sapiens, UniProt P01112); assay: Binding to HRAS by surface plasmon resonance (SPR), Single Cycle Kinetics; conditions: SPR
[3] = biological target: GDP-bound NRAS wild-type protein (Homo sapiens, UniProt P01111); assay: Binding to NRAS by surface plasmon resonance (SPR), Single Cycle Kinetics; conditions: SPR
[4] = tested on: human lung cancer strain NCI-H441; conditions: read-out: NCI-H441 IC50; NCI-H441 cells, 4 days, CellTiter-Glo
[5] = SPR, Single Cycle Kinetics, GDP-bound KRAS wild-type protein
[6] = KD ratio, GDP-bound HRAS wild-type vs GDP-bound KRAS wild-type
[7] = KD ratio, GDP-bound NRAS wild-type vs GDP-bound KRAS wild-type
[8] = SPR Single Cycle Kinetics, GDP-bound KRAS wild-type protein, 1:1 binding model

GDP-bound HRAS wild-type protein, sequence (P01112 whole entry): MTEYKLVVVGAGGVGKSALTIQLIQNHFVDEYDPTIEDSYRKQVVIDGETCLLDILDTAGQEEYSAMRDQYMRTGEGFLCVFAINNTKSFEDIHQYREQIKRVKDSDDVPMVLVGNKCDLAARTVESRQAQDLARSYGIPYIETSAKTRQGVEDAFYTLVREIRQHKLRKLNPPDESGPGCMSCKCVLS
GDP-bound NRAS wild-type protein, sequence (P01111 whole entry): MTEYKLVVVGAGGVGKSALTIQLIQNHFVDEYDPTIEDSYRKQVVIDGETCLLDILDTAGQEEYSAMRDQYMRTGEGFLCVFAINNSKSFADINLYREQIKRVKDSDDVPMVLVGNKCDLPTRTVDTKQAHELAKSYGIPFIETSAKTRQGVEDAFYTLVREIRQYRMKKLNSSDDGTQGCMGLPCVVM

Row | Kd [1, 5] [nM] | Kd [1, 8] [nM] | SMILES | IC50 [4] [nM] | HRAS/KRAS (ratio of KD value with respect to HRAS to KD value with respect to KRAS) [2, 6] | NRAS/KRAS (ratio of KD value with respect to NRAS to KD value with respect to KRAS) [3, 7] | further results
1 | 0.13 | – | CCO[C@@H]1C[C@H]2C(=O)NC3(CCC3)C(=O)N(C)[C@@H](C3CCCC3)C(=O)N(C)[C@H](C(=O)N3CCCC3)CC(=O)N(C)[C@@H](CC)C(=O)N[C@@H]([C@@H](C)CC)C(=O)N(C)CC(=O)N(C)[C@H]3C/C=C\CCN(C3=O)[C@@H](CC3CCC(F)(F)CC3)C(=O)N(C)CC(=O)N[C@@H](CCc3cc(F)c(C(F)(F)F)c(F)c3)C(=O)N2C1 [PP1442] | 48.3 | – | – | HRAS/KRAS (ratio of KD value for GDP-bound HRAS wild-type protein to KD value for KRAS) ([2]; KD ratio class): A (a compound having 10 or more and less than 20 is denoted as A); NRAS/KRAS (ratio of KD value for GDP-bound NRAS wild-type protein to KD value for KRAS) ([3]; KD ratio class): A (a compound having 10 or more and less than 20 is denoted as A)
2 | 0.012 | – | CCCN1C(=O)CN(C)C(=O)CN(C)C(=O)[C@H]([C@@H](C)CC)NC(=O)[C@@H]2CCC=CCOc3ccc(cc3)C[C@H]1C(=O)N(C)CC(=O)N[C@@H](CCc1cc(F)c(C(F)(F)F)c(F)c1)C(=O)N1C[C@H](OCC)C[C@H]1C(=O)NC1(CCCC1)C(=O)N(C)[C@@H](C1CCCC1)C(=O)N(C)[C@H](C(=O)N(C)C)CC(=O)N2C [PP0900] ([X7]I[Sar][Sar][X8][Sar][hPhe(3,5-F2-4-CF3)][Hyp](Et)[Ac5c][NMeGly(cPent)][NMeD]-NMe2; staple 1-5; lactam N-11) | – | C (A compound having a KD ratio of 0.1 or more and less than 3 is denoted as C) | C (A compound having a KD ratio of 0.1 or more and less than 3 is denoted as C) | –
3 | – | 3000 | CC[C@H](C)[C@@H]1NC(=O)[C@H](CC(C)C)N(C)C(=O)CSC[C@@H](C(=O)N(C)C)N(C)C(=O)[C@H](C2CCCC2)N(C)C(=O)C2(CCCC2)NC(=O)[C@@H]2CCCN2C(=O)[C@H](CCc2cc(F)c(C(F)(F)F)c(F)c2)NC(=O)CN(C)C(=O)[C@H](Cc2ccc(C(F)(F)F)cc2)N2CC/C=C\C[C@@H](C2=O)N(C)C(=O)CN(C)C1=O (stereo in doubt) [PP3109] | – | – | – | –
4 | 1.1 | – | CCCN1C(=O)CN(C)C(=O)CN(C)C(=O)[C@H]([C@@H](C)CC)NC(=O)[C@@H]2CCCCCCC[C@@H](NC(=O)[C@@H]3C[C@@H](OCC)CN3C(=O)[C@H](CCc3cc(F)c(C(F)(F)F)c(F)c3)NC(=O)CN(C)C(=O)[C@@H]1Cc1ccc(C(F)(F)F)cc1)C(=O)N(C)[C@@H](C1CCCC1)C(=O)N(C)[C@H](C(=O)N(C)C)CC(=O)N2C [PP0925] | – | B (a compound having 3 or more and less than 10 is denoted as B) | A (a compound having 10 or more and less than 20 is denoted as A) | –
5 | – | – | CCO[C@@H]1C[C@H]2C(=O)NC3(CCC3)C(=O)N(C)[C@@H](C3CCCC3)C(=O)N(C)[C@H](C(=O)N(C)C)CC(=O)N(C)[C@@H](CC3CCCC3)C(=O)N[C@@H]([C@@H](C)CC)C(=O)N(C)CC(=O)N(C)[C@H]3C/C=C\CCN(C3=O)[C@@H](Cc3ccc(C(F)(F)F)cc3)C(=O)N(C)CC(=O)N[C@@H](CCc3ccc(C(F)(F)F)c(OC)c3)C(=O)N2C1 [PP1248] | 7.3 | – | – | Kd [1]: 0.069 nM
6 | – | 0.6 | CCCN1C(=O)[C@@H]2CCN2C(=O)[C@H](C)N(C)C(=O)[C@H]([C@@H](C)CC)NC(=O)[C@H](CC(C)C)N(C)C(=O)C[C@@H](C(=O)N(C)C)N(C)C(=O)[C@H](C2CCCC2)N(C)C(=O)C2(CCC2)NC(=O)[C@@H]2CCCN2C(=O)[C@H](CCc2ccc(C(F)(F)F)c(Cl)c2)NC(=O)CN(C)C(=O)[C@@H]1COCCC(C)C [PP1820, (3S,9S,12S,17S,20S,23S,27S,30S,36S)-3-[2-[3-chloro-4-(trifluoromethyl)phenyl]ethyl]30-cyclopentyl-23-isobutyl-9-(isopentyloxymethyl)-N,N,7,17,18,24,28,31-octamethyl-20-[(1S)-1-methylpropyl]-2,5,8,11,16,19,22,25,29,32,35-undecaoxo-10-propyl-spiro[1,4,7,10,15,18,21,24,28,31,34-undecazatricyclo[34.3.0.012,15]nonatriacontane-33,1′-cyclobutane]-27-carboxamide] ([NMeL]I[NMeA][Aze][X4][Sar][hPhe(3-Cl-4-CF3)]P[Ac4c][NMeGly(cPent)][NMeD]-NMe2; lactam N-11) | – | – | – | HRAS/KRAS (ratio of KD value for HRAS to KD value for KRAS) [2, 6]: C (A compound having a KD ratio of 0.1 or more and less than 3 is denoted as C); NRAS/KRAS (ratio of KD value for NRAS to KD value for KRAS) [3, 7]: C (A compound having a KD ratio of 0.1 or more and less than 3 is denoted as C)
